Assay results: publication PMC6137088, “The Role of Outer Membrane Proteins and Lipopolysaccharides for the Sensitivity of Escherichia coli to Antimicrobial Peptides” (Frontiers in Microbiology, 2018)
Where no end group is shown, it is not given here.

Assays:
Y. ruckeri 392/2003 = assay: MIC testing (CLSI broth microdilution); type: cell-based; conditions: Table 6, triplicates
Description: (§1) The minimum inhibitory concentrations (MICs) of the AMPs were measured in 96-well microtiter plates according the Clinical and Laboratory Standards Institute [CLSI, formerly National Committee for Clinical Laboratory Standards (NCCLS)] (Wikler et al., [2009]). Liquid Mueller-Hinton-II medium containing increasing concentrations of AMPs is inoculated with a defined number of cells (~10^5 CFUs/ml) in 96-well microtiter plates (polypropylene). Each microtiter plate includes a positive growth control and a negative control (sterile control). After incubation, the minimal inhibitory concentration (MIC) is determined by the lowest concentration showing no visible growth. All plates were incubated for 16–20 h.

S. typhimurium LT2 = assay: MIC testing (CLSI broth microdilution); type: cell-based; conditions: Table 6, triplicates
Description: as §1

E. coli ATCC25922 = type: cell-based, Escherichia coli; conditions: Table 6; E. coli ATCC25922 wild-type; triplicates
From the text: (§2) The E. coli strains 470, F632, F653 and F2513 were kindly provided by Prof. H. Brade and Prof. S. Muller-Loennies, Research Center Borstel, Leipniz-Center for Medicine and Biosciences, Germany. E. coli BW25113 (CGSC#:7636), a derivative of F^−, λ^− E. coli K12 strain BD792 is the wild-type strain which was used in the generation of the KEIO collection and ordered from the Coli Genetic Stock Centre (CGSC, Yale University). E. coli JW3596, E. coli JW3024, E. coli JW3595, E. coli JW3606, E. coli JW0212, E. coli JW1667, E. coli JW0554, E. coli JW3605 and E. coli JW3600 are isogenic mutants of waaC, waaE, waaF, waaG, gmhA (lpcA), lpp, ompT, waaP, or waaY derived from the parental strain E. coli BW25113 and were ordered from the KEIO collection (Baba et al., [2006]). E. coli ATCC25922 is a clinical isolate, serotype O6, often used as control strain in antimicrobial susceptibility testing was ordered from the ATCC strain collection. All strains were grown in Mueller-Hinton-II medium and incubation took place aerobically at 37°C for 18–20 h.
as §1

E. coli ATCC25922 ΔwaaE = type: cell-based, Escherichia coli; conditions: Table 6, triplicates
From the text: as §2, §1

E. coli ATCC25922 ΔwaaF = type: cell-based, Escherichia coli; conditions: Table 6, triplicates
From the text: as §2, §1

E. coli ATCC25922 ΔwaaC = type: cell-based, Escherichia coli; conditions: Table 6, triplicates
From the text: as §2, §1

E. coli ATCC25922 ΔwaaG = type: cell-based, Escherichia coli; conditions: Table 6, triplicates
From the text: as §2, §1

Sequence | Antimicrobial activity: MIC (Y. ruckeri 392/2003) [µg/mL] | Antimicrobial activity: MIC (S. typhimurium LT2) [µg/mL] | Antimicrobial activity: MIC (E. coli ATCC25922) [µg/mL] | Antimicrobial activity: MIC (E. coli ATCC25922 ΔwaaE) [µg/mL] | Antimicrobial activity: MIC (E. coli ATCC25922 ΔwaaF) [µg/mL] | Antimicrobial activity: MIC (E. coli ATCC25922 ΔwaaC) [µg/mL] | Antimicrobial activity: MIC (E. coli ATCC25922 ΔwaaG) [µg/mL]
GLRKRLRKFRNKIKEKDKKIGQKIQGLLPKLAPRTDY [L17D] | ≥64 | ≥64 | ≥64 | ≥64 | ≥64 | ≥64 | ≥64
GLRKRLRKFRNKIKECLKKIGQKIQGLLPKLAPRTDY [K16C] | 8 to 16 | 8 to 16 | 8 | 8 | 4 | 4 | 8
GLRKRLRKFRNKIKEKLKKIGQKDQGLLPKLAPRTDY [I24D] | ≥64 | ≥64 | ≥64 | 16 | 16 | 16 | ≥64
GLRKRLRKFRNKIKEKLKKNGQKIQGLLPKLAPRTDY [I20N] | ≥64 | 8 to 16 | ≥64 | 16 | 8 | 16 | 16
GLRKRLRKFRNKIKEKPKKIGQKIQGLLPKLAPRTDY [L17P] | ≥64 | ≥64 | ≥64 | ≥64 | ≥64 | ≥64 | ≥64
GLRKRLRKFRNKHKEKLKKIGQKIQGLLPKLAPRTDY [I13H] | 8 to 16 | 4 | 4 | 2 | 2 | 2 | 2
GLRKRLRKFRNKRKEKLKKIGQKIQGLLPKLAPRTDY [I13R] | 32 to 64 | 16 to 32 | ≥64 | ≥64 | 16 | 32 | 8
GLRKRPRKFRNKIKEKLKKIGQKIQGLLPKLAPRTDY [L6P] | 64 | 8 | 8 | 8 | 4 | 4 | 4
